According to patent US5462861A, “Method for improving enzyme activities with noble gases” (American Air Liquide, Chicago Research Center, priority 1993, dated 1995):
“Also recorded” adds a separate entry of the source.

How the values were obtained:
Tyrosinase = test: Tyrosinase-L-tyrosine reaction, solution saturated with gas; assay type: biochemical, Mushroom; details: for effect: optimal reaction conditions, simple saturation of solution with gas, minus = inhibition; for effect on rate and final equilibrium of the tyrosinase-L-tyrosine reaction: various temperatures; for temperature dependence of the effect on tyrosinase: various temperatures (15-35° C.)
Procedure: (§1) Solution preparation: Optimized w/v solutions are prepared by diluting the enzyme (units/ml) and the substrate (μg/ml) in appropriate buffer (optimized pH and molarity for enzymes). The solutions are used for gas experiments at once to avoid loss of activity. Various enzyme and substrate concentrations and inhibitors may be employed. Physical parameters are varied as required.
(§2) Preparation of samples: Cuvets are filled with 2 ml of substrate solution by means of a gas-tight syringe. Gas-tight serum vials are filled with enzyme and solvent. Sufficient gas is consecutively bubbled in the cuvets and serum vials, with a 1-hr wait between injections to maximize equilibration of gas. All syringes and dead spaces are purged before filling with the appropriate gas. The amount of gas used has been measured sufficient to saturate the solution required.
(§3) Spectrophotometric time-drive, reaction rate, and kinetic analyses: cuvets and serum vials are saturated with gas 40 minutes before the run. A gas-filled syringe is used to retrieve 0.5 ml of enzyme solution to avoid air contact. The 0.5 ml syringe injections of enzyme are made simultaneously to effect a common starting time to for the samples. 7 gases (air, O2, N2, Ne, Ar, Kr, Xe) are run at various temperatures each (from 0° to 60° ). Changes in the rate or final equilibrium of the reaction versus ambient air are recorded. Comparison is also made with added oxygen, and with deoxygenation. Some samples are also prepared under pressure.
1. Solution preparation: 10% w/v solutions are prepared by diluting the enzyme (units/ml) and the substrate (μg/ml) in Sodium Phosphate buffer (pH 6.85, optimized pH for enzymes). The solutions are stored in refrigerator (0°-5° C.) and used for gas experiments within 2 or 3 days to avoid loss of activity.
6. Preparation of run samples: Acrylic cuvets are filled with 2 ml of substrate solution by means of a gas tight syringe. Gastight serum vials are filled with enzyme. 3×10 cc of gas are consecutively bubbled in the cuvets and serum vials, with a […] between injections. This represents a 10× displacement of dead volume while maximizing equilibration of gas. All syringes and dead spaces are purged before filling with the appropriate gas. After the third 10 cc injection, the cuvets and serum vials are left overnight under two 10 cc syringes filled with the appropriate gas in refrigerator at 0°-5° C.
8. Spectrophotometric runs: The cuvets and serum vials are filled with 10 cc of gas 40 min before the run. A gas-filled syringe is used to retrieve 0.5 ml of enzyme solution to avoid air contact. The 0.5 ml syringe injections of enzyme are made simultaneously to effect a common starting time t0 for the samples. Seven gases (air, O2, N2, Ne, Ar, Kr, Xe) are run at five temperatures each (15° C., 20° C., 25° C., 30° C., 35° C.). Changes in the rate or final equilibrium of the reaction versus ambient air are recorded.
The optimal conditions are [E]/[S] (100 μg/ml)/(100 μg/ml), the changes in absorbance being observed at 305 nm.
3×10 cc of gas are bubbled in the silicone-sealed cuvets and serum vials (T-3754, T-7755), with an interval of 20 min (at 0°-5°C.) between each gas injection.
a. The silicone-sealed cuvets are removed from the refrigerator 40 min before the experimental run, filled with 10 cc of gas and left at room temperature (26° C.) under two 10 cc syringes.
The 0.5 ml syringe injections of enzyme are made simultaneously to effect a common starting time t0 for the samples.
200 points, 18 s intervals 1 hr run

Beta-D-glucosidase = Beta-D-glucosidase activity under gas; assay type: biochemical; details: for effect: plus = enhancement
Procedure: as §1, §2, §3
In a complete experiment, an enzyme at optimal pH and buffering salt concentration is reacted with 5 substrate concentrations in solution with noble gas at 1 atm. […] Controls are also run after evacuation of solution by vacuum. The reaction is monitored colorimetrically in a scanning spectrophotometer in real time, and the signals are treated mathematically to obtain rate and yield differences. Sample numbers are constant and sufficient to ensure significance of results. All parameters are independently controlled and measured, and more complex experiments are occasionally carried out.

Structure (SMILES)	effect on tyrosinase-L-tyrosine reaction (Tyrosinase; 15° C.)	effect on tyrosinase-L-tyrosine reaction (Tyrosinase; 25° C.)	effect (Tyrosinase; 25° C.)	effect on tyrosinase-L-tyrosine reaction (Tyrosinase; 30° C.)	effect on rate and final equilibrium of the tyrosinase-L-tyrosine reaction (Tyrosinase)	temperature dependence of the effect on tyrosinase (Tyrosinase)	effect (Beta-D-glucosidase)	effect on tyrosinase-L-tyrosine reaction (Tyrosinase; 20° C.)	other results
[Kr] [Kr, krypton]	strong effects; also recorded: large inhibitory effect	inhibitory effect	-73%	inhibitory effect	inhibition	direct inverse (negative) relationship; also recorded: activity transition occuring between 20 °C and 25 °C	+14%	–	effect on tyrosinase-L-tyrosine reaction (Tyrosinase; 20° C., listed as Krypton): lesser inhibitory effect; effect on tyrosinase-L-tyrosine reaction (Tyrosinase; 20° C., listed as krypton): effective inhibitors; also recorded: almost of equal effect; also recorded: lesser effect; also recorded: inhibiting effects
[Xe] [Xe, xenon]	small, but significant inhibitory effect; also recorded: small but significant inhibitory effect	inhibitory effect	-73%	–	–	–	+40%	inhibits the tyrosinase-L-tyrosine reaction quite strongly; also recorded: dramatically inhibit; also recorded: inhibiting effects	effect on tyrosinase (Tyrosinase; 26° C.): very large inhibition; also recorded: optimal inhibition curve; area of run curve (Tyrosinase; 26° C., FIG. 6): ~3037 μ; inhibition of air rate (Tyrosinase; 26° C., FIG. 6, estimated from curve areas): ~72.92%; total area as % of air area (Tyrosinase; 26° C., FIG. 6, 60 min): ~27.08%; % total area (Tyrosinase; 26° C., FIG. 6, total = air + xenon areas): ~21.31; effect on tyrosinase-L-tyrosine reaction (Tyrosinase; 30° C., listed as Xenon): inhibits the reaction much better than other gases; effect on tyrosinase-L-tyrosine reaction (Tyrosinase; 30° C., listed as xenon): inhibitory effect; effect on tyrosinase (Tyrosinase; equal w/w, FIG. 5): inhibition; temperature dependence of the effect on tyrosinase (Tyrosinase; listed as Xenon): interacts inversely with temperature; temperature dependence of the effect on tyrosinase (Tyrosinase; listed as xenon): at least two activity transitions; also recorded: large difference in xenon activity between 20 °C and 25 °C; also recorded: interacts inversely with temperature; also recorded: large difference in xenon activity between 20° and 25 °C; effect on rate and final equilibrium of the tyrosinase-L-tyrosine reaction (Tyrosinase; listed as Xenon): significantly inhibits the rate and depresses the final equilibrium; effect on rate and final equilibrium of the tyrosinase-L-tyrosine reaction (Tyrosinase; listed as xenon): inhibits the equilibrium of the tyrosinase-L-tyrosine reaction better than other gases; also recorded: inhibition; enhancement (Beta-D-glucosidase; with the addition of different competing substrates): up to 200%
[Ar] [Ar, argon]	slightly inhibits equilibrium	inhibit at a lesser level than the other noble gases; also recorded: less inhibition at 25 °C than neon; also recorded: inhibitory effect	-60%	inhibitory effect	inhibition; also recorded: surprisingly active at low temperatures	–	+16%	effective inhibitors; also recorded: strong inhibition; also recorded: dramatically inhibit; also recorded: better inhibition by argon at 20 °C than neon; also recorded: inhibiting effects	–
N#N [N2, nitrogen, reference compound]	–	inhibit at a lesser level than the other noble gases	–	–	effective in inhibiting tyrosinase activity; also recorded: inhibition	transitional maxima is observed after 20 °C	–	–	effect on tyrosinase-L-tyrosine reaction (Tyrosinase; 20° C., listed as Nitrogen): inhibits the reaction fairly well; effect on tyrosinase-L-tyrosine reaction (Tyrosinase; 20° C., listed as nitrogen): lesser inhibitory effect
[Ne] [Ne, neon]	strong effects; also recorded: large inhibitory effect	inhibitory effect	-46.7%	inhibitory effect	–	activity transition occuring between 20 °C and 25 °C; also recorded: positively temperature dependent	–	effective inhibitors; also recorded: dramatically inhibit; also recorded: inhibiting effects	–
